Assay results as given in ChEMBL document CHEMBL1147786, “Synthesis and evaluation of a mechanism-based inhibitor of a 3-deoxy-D-arabino heptulosonate 7-phosphate synthase” (Bioorg Med Chem Lett, 2006).

Assay: Inhibition of Escherichia coli DAH7P synthase

IC50: 6.6 µM
SMILES: O=C(O)CN(C[C@H](O)[C@@H](O)[C@@H](O)COP(=O)(O)O)CP(=O)(O)O
